# Source: patent publication US9527828B2, “Method for expanding hematopoietic stem cells using heterocyclic compound” (Nissan Chemical Industries, Ltd., priority 2007, dated 2016)
# System: CD34^+CD38^− cells
# Test: Expansion of CD34+CD38− cells from human cord blood-derived CD34+ cells (Example 2)
# Type: cell-based
# Settings: 1 μg/mL compound, 50 ng/mL SCF, StemSpan SFEM, 7 days, based on number of CD34+CD38− cells in the absence of compound; for fold induction at 1 µg/mL: Homo sapiens, 168 h, read-out: Expansion efficiency
# Procedure: The human cord blood-derived CD34^+ cells collected or purchased in Example 1 were plated on a 24-well plate (TPP) (10000 cells/1/mL/well). As the culture medium, StemSpan SFEM (Stemcell Technologies) containing 50 ng/mL SCF (Peprotech) was used, and Compounds No. 1 to 133 dissolved in dimethyl sulfoxide were added in an amount of 0.1% (v/v) to a final concentration of 1 μg/mL.
# After the cells were incubated in liquid culture at 37° C. for 7 days in a CO2 incubator (5% CO2), the number of viable cells was counted by trypan blue assay. The number of CD34^+CD38^− cells was calculated as follows. After the incubation, the cells in the liquid culture was stained with a CD34 antibody (APC, Becton, Dickinson and Company) and a CD38 antibody (PE, Becton, Dickinson and Company), then washed with PBS(−) containing 2% (v/v) FBS and stained with propidium iodide (Sigma-Aldrich Japan) added to a final concentration of 5 μg/mL. The stained cells were analyzed with a flow cytometer JSAN (Bay Bioscience) to determined the proportion of CD34^+CD38^− cells, which was multiplied by the number of viable cells to calculate the number of CD34^+CD38^− cells.
# The expansion efficiencies in the presence of 1 μg/mL of compounds based on the number of CD34^+CD38^− cells in the absence of them are shown in Tables 2 and 3 on a scale of A for expansion efficiencies of 10 or greater, B for expansion efficiencies of at least 5 and less than 10, and C for expansion efficiencies of at least 3 and less than 5.
SMILES,fold induction at 1 µg/mL,Expansion efficiency
C/C(=N\NC(=O)c1ccc(C(=O)NCCN2CCCC2)s1)c1csc(-c2ccc(Cl)c(Cl)c2)c1O [compound 67],3 to 5,
C/C(=N\NC(=O)c1ccc(C(=O)NC2CCC(O)CC2)s1)c1csc(-c2ccc(Cl)c(Cl)c2)c1O (centres unmarked) [compound 68],5 to 10,
CCCCCNC(=O)c1ccc(C(=O)N/N=C(\C)c2csc(-c3ccc(Cl)c(Cl)c3)c2O)s1 [compound 69],3 to 5,
C/C(=N\NC(=O)c1ccc(C(=O)NCCO)s1)c1csc(-c2ccc(Cl)cc2)c1O [compound 70],,B (B for expansion efficiencies of at least 5 and less than 10)
CCN(CC)C(=O)c1ccc(C(=O)N/N=C(\C)c2csc(-c3ccc(Cl)cc3)c2O)s1 [compound 71],5 to 10,
C/C(=N\NC(=O)c1ccc(C(=O)NCc2ccccn2)s1)c1csc(-c2ccc(Cl)c(Cl)c2)c1O [compound 72],5 to 10,
C/C(=N\NC(=O)c1ccc(C(=O)NCCCCO)s1)c1csc(-c2ccc(Cl)c(Cl)c2)c1O [compound 73],5 to 10,
C/C(=N\NC(=O)c1ccc(C(=O)NCc2ccccn2)s1)c1csc(-c2cccc(Cl)c2)c1O [compound 75],3 to 5,
CCCN(C)C(=O)c1ccc(C(=O)N/N=C(\C)c2csc(-c3ccc(Cl)cc3)c2O)s1 [compound 76],3 to 5,
C/C(=N\NC(=O)c1ccc(C(=O)NC(C)C)s1)c1csc(-c2ccc(Cl)cc2)c1O [compound 77],5 to 10,
C/C(=N\NC(=O)c1ccc(C(=O)NC(C)C)s1)c1csc(-c2cccc(Cl)c2)c1O [compound 78],5 to 10,
C/C(=N\NC(=O)c1ccc(C(=O)N(C)Cc2ccccc2)s1)c1csc(-c2cccc(Cl)c2)c1O [compound 79],3 to 5,
C/C(=N\NC(=O)c1ccc(C(=O)N(C)Cc2ccccn2)s1)c1csc(-c2ccc(Cl)c(Cl)c2)c1O [compound 80],3 to 5,
CCN(C)C(=O)c1ccc(C(=O)N/N=C(\C)c2csc(-c3ccc(Cl)c(Cl)c3)c2O)s1 [compound 81],3 to 5,
C/C(=N\NC(=O)c1ccc(C(=O)NCc2cn(C)cn2)s1)c1csc(-c2ccc(OC(F)(F)F)cc2)c1O [compound 82],3 to 5,
C/C(=N\NC(=O)c1ccc(C(=O)NCc2ccc(C(=O)O)cc2)s1)c1csc(-c2ccc(Cl)c(Cl)c2)c1O [compound 83],3 to 5,
C/C(=N\NC(=O)c1ccc(C(=O)NCc2ccncn2)s1)c1csc(-c2ccc(Cl)c(Cl)c2)c1O [compound 84],5 to 10,
CCCN(CC)C(=O)c1ccc(C(=O)N/N=C(\C)c2csc(-c3ccc(Cl)c(Cl)c3)c2O)s1 [compound 85],3 to 5,
C/C(=N\NC(=O)c1ccc(C(=O)NCc2ccc(C(N)=O)cc2)s1)c1csc(-c2ccc(C(C)(C)C)cc2)c1O [compound 86],≥ 10,

SMILES,fold induction at 1 µg/mL,Expansion efficiency
C/C(=N\NC(=O)c1ccc(C(=O)NCc2ccc(C(N)=O)cc2)s1)c1csc(-c2ccc(Br)cc2)c1O [compound 87],≥ 10,
C/C(=N\NC(=O)c1ccc(C(=O)NCc2ccc(C(N)=O)cc2)s1)c1csc(-c2ccc(C(F)(F)F)cc2)c1O [compound 88],≥ 10,
C/C(=N\NC(=O)c1ccc(C(=O)NCc2ccc(C(N)=O)cc2)s1)c1csc(-c2ccc(Cl)cc2)c1O [compound 89],≥ 10,
C/C(=N\NC(=O)c1ccc(C(=O)NCc2ccc(C(N)=O)cc2)s1)c1csc(-c2ccc(OC(F)(F)F)cc2)c1O [compound 90],≥ 10,
COc1ccc(-c2scc(/C(C)=N/NC(=O)c3ccc(C(=O)NCc4ccc(C(N)=O)cc4)s3)c2O)cc1 [compound 91],≥ 10,
C/C(=N\NC(=O)c1ccc(C(=O)NCc2cccc(C(N)=O)c2)s1)c1csc(-c2ccc(Cl)c(Cl)c2)c1O [compound 92],≥ 10,
C/C(=N\NC(=O)c1ccc(C(=O)NCc2cccc(C(N)=O)c2)s1)c1csc(-c2ccc(C(C)(C)C)cc2)c1O [compound 93],≥ 10,
C/C(=N\NC(=O)c1ccc(C(=O)NCc2cccc(C(N)=O)c2)s1)c1csc(-c2ccc(Br)cc2)c1O [compound 94],≥ 10,
C/C(=N\NC(=O)c1ccc(C(=O)NCc2cccc(C(N)=O)c2)s1)c1csc(-c2ccc(C(F)(F)F)cc2)c1O [compound 95],≥ 10,
C/C(=N\NC(=O)c1ccc(C(=O)NCc2cccc(C(N)=O)c2)s1)c1csc(-c2ccc(Cl)cc2)c1O [compound 96],≥ 10,
C/C(=N\NC(=O)c1ccc(C(=O)NCc2cccc(C(N)=O)c2)s1)c1csc(-c2ccc(OC(F)(F)F)cc2)c1O [compound 97],≥ 10,
COc1ccc(-c2scc(/C(C)=N/NC(=O)c3ccc(C(=O)NCc4cccc(C(N)=O)c4)s3)c2O)cc1 [compound 98],≥ 10,
C/C(=N\NC(=O)c1ccc(C(=O)NCc2ccccc2C(N)=O)s1)c1csc(-c2ccc(Cl)c(Cl)c2)c1O [compound 99],≥ 10,
C/C(=N\NC(=O)c1ccc(C(=O)NCc2ccccc2C(N)=O)s1)c1csc(-c2ccc(C(C)(C)C)cc2)c1O [compound 100],3 to 5,
C/C(=N\NC(=O)c1ccc(C(=O)NCc2ccccc2C(N)=O)s1)c1csc(-c2ccc(Br)cc2)c1O [compound 101],≥ 10,
C/C(=N\NC(=O)c1ccc(C(=O)NCc2ccccc2C(N)=O)s1)c1csc(-c2ccc(C(F)(F)F)cc2)c1O [compound 102],≥ 10,
C/C(=N\NC(=O)c1ccc(C(=O)NCc2ccccc2C(N)=O)s1)c1csc(-c2ccc(Cl)cc2)c1O [compound 103],≥ 10,
C/C(=N\NC(=O)c1ccc(C(=O)NCc2ccccc2C(N)=O)s1)c1csc(-c2ccc(OC(F)(F)F)cc2)c1O [compound 104],≥ 10,
COc1ccc(-c2scc(/C(C)=N/NC(=O)c3ccc(C(=O)NCc4ccccc4C(N)=O)s3)c2O)cc1 [compound 105],5 to 10,

SMILES,fold induction at 1 µg/mL,Expansion efficiency
CNC(=O)c1ccc(CNC(=O)c2ccc(C(=O)N/N=C(\C)c3csc(-c4ccc(Cl)c(Cl)c4)c3O)s2)cc1 [compound 106],≥ 10,
CNC(=O)c1ccc(CNC(=O)c2ccc(C(=O)N/N=C(\C)c3csc(-c4ccc(C(C)(C)C)cc4)c3O)s2)cc1 [compound 107],≥ 10,
CNC(=O)c1ccc(CNC(=O)c2ccc(C(=O)N/N=C(\C)c3csc(-c4ccc(Br)cc4)c3O)s2)cc1 [compound 108],≥ 10,
CNC(=O)c1ccc(CNC(=O)c2ccc(C(=O)N/N=C(\C)c3csc(-c4ccc(C(F)(F)F)cc4)c3O)s2)cc1 [compound 109],≥ 10,
CNC(=O)c1ccc(CNC(=O)c2ccc(C(=O)N/N=C(\C)c3csc(-c4ccc(Cl)cc4)c3O)s2)cc1 [compound 110],≥ 10,
CNC(=O)c1ccc(CNC(=O)c2ccc(C(=O)N/N=C(\C)c3csc(-c4ccc(OC(F)(F)F)cc4)c3O)s2)cc1 [compound 111],≥ 10,
CNC(=O)c1ccc(CNC(=O)c2ccc(C(=O)N/N=C(\C)c3csc(-c4ccc(OC)cc4)c3O)s2)cc1 [compound 112],≥ 10,
C/C(=N\NC(=O)c1ccc(C(=O)NC(C)c2ccc(C(N)=O)cc2)s1)c1csc(-c2ccc(Cl)c(Cl)c2)c1O (centres unmarked) [compound 113],≥ 10,
C/C(=N\NC(=O)c1ccc(C(=O)NC(C)c2ccc(C(N)=O)cc2)s1)c1csc(-c2ccc(C(C)(C)C)cc2)c1O (centres unmarked) [compound 114],≥ 10,
C/C(=N\NC(=O)c1ccc(C(=O)NC(C)c2ccc(C(N)=O)cc2)s1)c1csc(-c2ccc(Br)cc2)c1O (centres unmarked) [compound 115],≥ 10,
C/C(=N\NC(=O)c1ccc(C(=O)NC(C)c2ccc(C(N)=O)cc2)s1)c1csc(-c2ccc(C(F)(F)F)cc2)c1O (centres unmarked) [compound 116],≥ 10,
C/C(=N\NC(=O)c1ccc(C(=O)NC(C)c2ccc(C(N)=O)cc2)s1)c1csc(-c2ccc(Cl)cc2)c1O (centres unmarked) [compound 117],≥ 10,
C/C(=N\NC(=O)c1ccc(C(=O)NC(C)c2ccc(C(N)=O)cc2)s1)c1csc(-c2ccc(OC(F)(F)F)cc2)c1O (centres unmarked) [compound 118],≥ 10,
COc1ccc(-c2scc(/C(C)=N/NC(=O)c3ccc(C(=O)NC(C)c4ccc(C(N)=O)cc4)s3)c2O)cc1 (centres unmarked) [compound 119],≥ 10,
CC(=O)Nc1ccc(C(C)NC(=O)c2ccc(C(=O)N/N=C(\C)c3csc(-c4ccc(Cl)c(Cl)c4)c3O)s2)cc1 (centres unmarked) [compound 120],≥ 10,
CC(=O)Nc1ccc(C(C)NC(=O)c2ccc(C(=O)N/N=C(\C)c3csc(-c4ccc(C(C)(C)C)cc4)c3O)s2)cc1 (centres unmarked) [compound 121],5 to 10,
CC(=O)Nc1ccc(C(C)NC(=O)c2ccc(C(=O)N/N=C(\C)c3csc(-c4ccc(Br)cc4)c3O)s2)cc1 (centres unmarked) [compound 122],≥ 10,
CC(=O)Nc1ccc(C(C)NC(=O)c2ccc(C(=O)N/N=C(\C)c3csc(-c4ccc(C(F)(F)F)cc4)c3O)s2)cc1 (centres unmarked) [compound 123],≥ 10,
